Data published in PubChem BioAssay AID1963848 (Molecular Pharmacology Branch, DTP, NCI, 2024).

Tested on: 379773-124-R-J2-PDC spheroid viability
Experiment: Anticancer human tumor 379773-124-R-J2-PDC patient-derived endometrial carcinoma cell line growth inhibition [POLQ]
Conditions: spheroids with HUVEC and MSC; for IC50: curve of first compound; for viability, T/C: stronger effect = lower value
Procedure, shortened: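 Three-cell-type spheroids modelling solid tumor plus stroma served as the readout system; POL inhibitors were tested individually and in combination, concentration ranges set by clinical Cmax where known.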

[1] = second compound 0.0316 µM, first compound 0.0316 µM
[2] = second compound 0.0316 µM, first compound 0.1 µM
[3] = second compound 0.0316 µM, first compound 0.316 µM
[4] = second compound 0.0316 µM, first compound 1 µM
[5] = second compound 0.0316 µM, first compound 3.16 µM
[6] = second compound 0.0316 µM, first compound 10 µM
[7] = second compound 0.1 µM, first compound 0.0316 µM
[8] = second compound 0.1 µM, first compound 0.1 µM
[9] = second compound 0.1 µM, first compound 0.316 µM
[10] = second compound 0.1 µM, first compound 1 µM
[11] = second compound 0.1 µM, first compound 3.16 µM
[12] = second compound 0.1 µM, first compound 10 µM
[13] = second compound 0.316 µM, first compound 0.0316 µM
[14] = second compound 0.316 µM, first compound 0.1 µM
[15] = second compound 0.316 µM, first compound 0.316 µM
[16] = second compound 0.316 µM, first compound 1 µM
[17] = second compound 0.316 µM, first compound 3.16 µM
[18] = second compound 0.316 µM, first compound 10 µM
[19] = second compound 1 µM, first compound 0.0316 µM
[20] = second compound 1 µM, first compound 0.1 µM
[21] = second compound 1 µM, first compound 0.316 µM
[22] = second compound 1 µM, first compound 1 µM
[23] = second compound 1 µM, first compound 3.16 µM
[24] = second compound 1 µM, first compound 10 µM
[25] = second compound 3.16 µM, first compound 0.0316 µM
[26] = second compound 3.16 µM, first compound 0.1 µM
[27] = second compound 3.16 µM, first compound 0.316 µM
[28] = second compound 3.16 µM, first compound 1 µM
[29] = second compound 3.16 µM, first compound 3.16 µM
[30] = second compound 3.16 µM, first compound 10 µM
[31] = second compound 10 µM, first compound 0.0316 µM
[32] = second compound 10 µM, first compound 0.1 µM
[33] = second compound 10 µM, first compound 0.316 µM
[34] = second compound 10 µM, first compound 1 µM
[35] = second compound 10 µM, first compound 3.16 µM
[36] = second compound 10 µM, first compound 10 µM
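Further: spheroids exposed to drugs for seven days before readout.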
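Wherever viability, T/C is given: percent viability relative to DMSO vehicle control taken as 100%.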

Compound: CC1COCCN1c1cc(C2(S(C)(=N)=O)CC2)nc(-c2ccnc3[nH]ccc23)n1 (centres undefined) + COC1C(OC(N)=O)C(O)C(Oc2ccc3c(O)c(NC(=O)c4ccc(O)c(CC=C(C)C)c4)c(=O)oc3c2C)OC1(C)C
- IC50 (second compound 0.0316 µM): 1910 nM
- IC50 (second compound 0.1 µM): 1850 nM
- IC50 (second compound 0.316 µM): 1780 nM
- IC50 (second compound 1 µM): 1930 nM
- IC50 (second compound 3.16 µM): 1790 nM
- IC50 (second compound 10 µM): 1670 nM
- viability, T/C [1]: 100%
- viability, T/C [2]: 86.1%
- viability, T/C [3]: 78.5%
- viability, T/C [4]: 78.2%
- viability, T/C [5]: 28.9%
- viability, T/C [6]: 5.71%
- viability, T/C [7]: 92%
- viability, T/C [8]: 85.2%
- viability, T/C [9]: 91.3%
- viability, T/C [10]: 79.9%
- viability, T/C [11]: 24%
- viability, T/C [12]: 5.69%
- viability, T/C [13]: 91.1%
- viability, T/C [14]: 82.1%
- viability, T/C [15]: 77.1%
- viability, T/C [16]: 75.7%
- viability, T/C [17]: 24.9%
- viability, T/C [18]: 7.92%
- viability, T/C [19]: 87%
- viability, T/C [20]: 82.1%
- viability, T/C [21]: 87%
- viability, T/C [22]: 79%
- viability, T/C [23]: 28%
- viability, T/C [24]: 7.44%
- viability, T/C [25]: 78%
- viability, T/C [26]: 88.2%
- viability, T/C [27]: 81.5%
- viability, T/C [28]: 67.5%
- viability, T/C [29]: 32.6%
- viability, T/C [30]: 8.77%
- viability, T/C [31]: 85.6%
- viability, T/C [32]: 74.4%
- viability, T/C [33]: 79.8%
- viability, T/C [34]: 61.7%
- viability, T/C [35]: 34.5%
- viability, T/C [36]: 5.53%

Compound: CCCS(=O)(=O)Nc1ccc(F)c(C(=O)c2c[nH]c3ncc(-c4ccc(Cl)cc4)cc23)c1F + COC1C(OC(N)=O)C(O)C(Oc2ccc3c(O)c(NC(=O)c4ccc(O)c(CC=C(C)C)c4)c(=O)oc3c2C)OC1(C)C
- IC50 (second compound 0.0316 µM): > 10000 nM
- IC50 (second compound 0.1 µM): > 10000 nM
- IC50 (second compound 0.316 µM): > 10000 nM
- IC50 (second compound 1 µM): > 10000 nM
- IC50 (second compound 3.16 µM): > 10000 nM
- IC50 (second compound 10 µM): > 10000 nM
- viability, T/C [1]: 94.2%
- viability, T/C [2]: 86.8%
- viability, T/C [3]: 83.8%
- viability, T/C [4]: 87.9%
- viability, T/C [5]: 70.5%
- viability, T/C [6]: 57.9%
- viability, T/C [7]: 86.2%
- viability, T/C [8]: 87.7%
- viability, T/C [9]: 88.3%
- viability, T/C [10]: 80.3%
- viability, T/C [11]: 73.1%
- viability, T/C [12]: 55.4%
- viability, T/C [13]: 77.1%
- viability, T/C [14]: 75.6%
- viability, T/C [15]: 76.8%
- viability, T/C [16]: 77.6%
- viability, T/C [17]: 66.2%
- viability, T/C [18]: 52.9%
- viability, T/C [19]: 87.6%
- viability, T/C [20]: 84.4%
- viability, T/C [21]: 81.8%
- viability, T/C [22]: 77.8%
- viability, T/C [23]: 73.6%
- viability, T/C [24]: 58.9%
- viability, T/C [25]: 73.5%
- viability, T/C [26]: 76.2%
- viability, T/C [27]: 75.8%
- viability, T/C [28]: 76.4%
- viability, T/C [29]: 75.7%
- viability, T/C [30]: 61.3%
- viability, T/C [31]: 78.5%
- viability, T/C [32]: 85.4%
- viability, T/C [33]: 79.8%
- viability, T/C [34]: 66.5%
- viability, T/C [35]: 75.9%
- viability, T/C [36]: 60.2%
